Columns and labels:
Assay in all cases: Test C postemergence
Assay type in all cases: in vivo
Details in all cases: scale 0 to 100, 0 no effect, 100 complete control
[1] = test system: nutsedge, yellow (yellow nutsedge, Cyperus esculentus)
How it was run: (§1)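 Assessment: visual, 13–15 d after treatment, 0 (no effect) to 100 (complete control) relative to controls. Treatment: preemergence to seeds in loam-sand soil, or postemergence to 1- to 4-leaf plants in peat-based medium. Formulation: non-phytotoxic solvent mixture with surfactant.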

[2] = test system: chickweed (common chickweed, Stellaria media)
How it was run: as §1

[3] = test system: pigweed (Amaranthus retroflexus)
How it was run: as §1

CN1CC(c2ccc(F)c(F)c2)C(C(=O)Nc2ccccc2C(F)(F)F)C1=O (stereo not drawn) [Compound 641]
25: Plant response rating, Pigweed ([3]; 125 g ai/ha)
0: Plant response rating, Nutsedge, Yellow ([1]; 31 g ai/ha) | Plant response rating, Nutsedge, Yellow ([1]; 62 g ai/ha) | Plant response rating, Nutsedge, Yellow ([1]; 125 g ai/ha) | Plant response rating, Nutsedge, Yellow ([1]; 250 g ai/ha) | Plant response rating, Chickweed ([2]; 31 g ai/ha) | Plant response rating, Chickweed ([2]; 62 g ai/ha) | Plant response rating, Pigweed ([3]; 31 g ai/ha) | Plant response rating, Pigweed ([3]; 62 g ai/ha)
55: Plant response rating, Chickweed ([2]; 250 g ai/ha)
50: Plant response rating, Chickweed ([2]; 125 g ai/ha) | Plant response rating, Pigweed ([3]; 250 g ai/ha)

Source: patent publication US12077503B2, “Substituted cyclic amides and their use as herbicides” (FMC CORPORATION, priority 2015, dated 2024)
